From patent publication US8226944B2, “Composition for treating virus infection disease comprising Jab1” (priority 2004, dated 2012) come the findings set out here.

Assay [1] has as its system SH-SY5Y cells expressing WNV-Cp. Nature of the assay: Annexin V-PE staining / FACS apoptosis rate in cells transfected with WNV-Cp gene. In kind it is cell-based, human. The conditions noted are these: 200 nM inhibitor added after 6 hrs, measured after 24 hrs, untreated WNV-Cp cells 69.6%. From the text: Human neuroblastoma SH-SY5Y cells were transfected with a WNV-Cp gene. To determine an apoptosis rate in cells expressing the capsid protein of WNV, the cells were stained with annexin V-PE and subjected to FACS analysis (BioRAD, Win BRYTE). As a result, the cells were fractionated into four fractions: A, B, C and D. The A fraction indicates a cell population that was not injected with the WNV-Cp gene and stained with annexin V-PE.
Separately, SH-SY5Y cells were transfected with a WNV-Cp gene. After 6 hrs, the cells were treated with 200 nM of a PI3K inhibitor, wortmanin (Sigma), and 5 μM and 50 μM of an Akt inhibitor, calbiochem (CN Biosciences). After 24 hrs, the cells were stained with annexin V-PE that is capable of detecting a step of apoptosis and subjected to FACS analysis (BioRAD, WinBryte) for measuring an apoptosis rate. […] The transfected cells were analyzed on a FL3 channel (green fluorescence) and annexin V-PE binding was analyzed on a FL2 channel. An apoptosis rate in capsid-expressing cells was calculated according to Reaction 1, below. Cells transfected with a pEGFP-N1 plasmid were used as a negative control, and cells transfected with a C2-Cp plasmid and not treated with the inhibitor were used as a positive control. [Annexin V-PE-positive cells/(all cells expressing C2−Cp)]×100 [Reaction 1]

Assay [2] relates to WNV-Cp. Nature of the assay: Western blotting of WNV-Cp protein levels in transfected 293T cells. It counts as cell-based. How it is done: 293T cells were plated onto 60-mm plates at a density of 3×10^5 cells, cultured, and transfected with pcDAN3-HA/WNV-Cp alone, and pcDAN3-HA/WNV-Cp and pCMV-tag2B-Jab1 together using an Effectene transfection reagent (Qiagen). In the case of the co-transfection, to equalize the levels of expressed DNA, 12 hrs after transfection, cells were divided into two plates by pipetting. 20 hrs after transfection, the cells were treated for 4 hrs with 20 μM/ml of the proteasome inhibitor LLnL (N-acetyl-L-luecinyl-norleucinal, Sigma). Then, the cells were washed with 1×PBS and collected. Samples of 50 μg protein were loaded onto a SDS-PAGE gel and analyzed by Western blotting using an anti-HA antibody (Santa Cruz) for the detection of WNV-Cp expression and an anti-Flag M2 antibody (Sigma) for the detection of Jab1 expression. Actin was used as a loading control.

Assay [3] has as its target T1, WNV-Cp (West Nile virus, UniProt Q9Q6P4).
T1 construct: capsid (Cp) protein of West Nile virus (WNV); expressed in transfected cells; host or cells: 293T
T1 sequence (Q9Q6P4 2-105 limits assumed): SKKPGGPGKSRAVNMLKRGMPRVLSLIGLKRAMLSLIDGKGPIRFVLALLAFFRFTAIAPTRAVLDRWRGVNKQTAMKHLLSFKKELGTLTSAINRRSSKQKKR
Nature of the assay: Immunoprecipitation of Jab1 with WNV-Cp in cotransfected 293T cells. In kind it is binding. The conditions noted are these: 293T cells cotransfected with Flag-Jab1 and HA-WNV-Cp, IP with anti-HA antibody. How it is done: Separately, immunoprecipitation (IP) was performed to confirm the interaction between WNV-Cp and Jab1. 293T cells were cotransfected with Flag-Jab1 and HA-WNV-Cp plasmids, and the whole cell lysates were immunoprecipitated with an anti-HA mouse antibody. As a control, IP was carried out with an anti-Myc antibody. Immunoprecipited proteins were run on a 12% SDS-PAGE gel, transferred to a nitrocellulose membrane, and detected with an anti-Flag mouse antibody to visualize immunoprecipitated Jab1 along with WNV-Cp (FIG. 7).

Assay [4] has as its system WNV-Cp. Kind of assay: Immunofluorescence (confocal) localisation of WNV-Cp in cotransfected 293T, U2OS and HeLa cells. In kind it is cell-based, West Nile virus. The note with it: U2OS and HeLa cells cotransfected with WNV-Cp and Jab1, 24 hrs. From the text:
To evaluate the effect of Jab1, identified to interact with WNV-Cp, on the intracellular location of WNV-cp, 293T, U2OS and HeLa cells were cotransfected with the WNV-Cp protein and Jab1. 293T, U2OS and HeLa cells were cotransfected with HA-tagged pcDNA-HA/WNV-Cp and Flag-tagged pCMV Tag2B-Jab1. After 24 hrs, the cells were stained using an anti-HA antibody (green) and an anti-Flag antibody (red) and observed under a confocal microscope.

Another assay has as its system caspase-3 and caspase-9. Nature of the assay: Caspase activity assay (colorimetric) in transfected 293T cells. In kind it is cell-based, human. The conditions noted are these: 293T cells co-expressing WNV-Cp and Jab1 versus WNV-Cp alone, 24 hrs after transfection. How it is done: 293T cells were plated onto 60-mm plates at a density of 3×10^5 cells, cultured, and transfected with pcDNA3-HA, pcDNA3-HA/Cp, pCMV-tag2B-Jab1, both pcDNA3-HA/Cp and pCMV-tag2B-Jab1, and pcDNA3-Bax, respectively. After 24 hrs, the cells were washed with 1×PBS twice, transferred to 1.5-ml tubes, and lysed with 20 μl of buffer C (25% glycerol, 0.42 M NaCl, 1.5 M MgCl2, 0.2 mM EDTA, 20 mM HEPES, 1 mM DTT, 0.5 mM PMSF, pH7.9). After being incubated for 10 min on ice, the lysed cells were centrifuged. The total protein concentration in each supernatant was measured, and samples of zero to 300 μg of proteins were placed into a 96-well plate. To the 96-well plate, 50 μl of 2× reaction buffer and 5 μl of 4 mM DNA-conjugated substrate, provided in a caspase colorimetric substrate set II plus kit (Biovision), were added. After a 1-hr incubation at 37° C., the activity of caspase-3 and caspase-9 was measured at 410 nm using a microtiter plate reader. The results are given in the A panel of FIG. 8. In cells expressing WNV-Cp, the activity of capase-3 and caspase-9 was similar to that in cells expressing Bax, a member of the pro-apoptotic Bcl-2 family. […] The expression of the proteins used in this caspase activity assay was detected by Western blotting, and the results are given in the B panel of FIG. 8.

The subject of the next assay is p53. Nature of the assay: Western blotting of endogenous p53 expression in transfected U2OS cells. The conditions noted are these: U2OS cells transfected with 1, 3 and 5 μg Flag construct, 48 hrs. In kind it is cell-based, human. How it is done: U2OS cells were transfected with Flag/mdm2 (control) and Flag/Jab1 with various concentrations of 1, 3 and 5 μg using a Lipofectamin/plus reagent (Invitrogen). After 48 hrs, cell lysates were collected, and total protein concentrations were measured by a BSA (PIERCE) method. Samples of 100 μg/ml protein were separated on a 10% SDS-PAGE gel and transferred to a nitrocellulose membrane. The blot was blocked with 5% skim milk for 30 min, and treated with a rabbit anti-HA antibody (Santa Cruz) and a mouse anti-Flag antibody (Sigma) to examine expression levels of p53 according to increased expression of mdm2 and Jab1.
On the technique in general: Immunoblotting shows a protein as a band on a membrane.

Square brackets hold non-standard residues; d marks the D form. Peptide text beside a SMILES is read from it. Nle = CCCC[C@H](N)C(=O)O

p53, sequence (P04637 whole entry): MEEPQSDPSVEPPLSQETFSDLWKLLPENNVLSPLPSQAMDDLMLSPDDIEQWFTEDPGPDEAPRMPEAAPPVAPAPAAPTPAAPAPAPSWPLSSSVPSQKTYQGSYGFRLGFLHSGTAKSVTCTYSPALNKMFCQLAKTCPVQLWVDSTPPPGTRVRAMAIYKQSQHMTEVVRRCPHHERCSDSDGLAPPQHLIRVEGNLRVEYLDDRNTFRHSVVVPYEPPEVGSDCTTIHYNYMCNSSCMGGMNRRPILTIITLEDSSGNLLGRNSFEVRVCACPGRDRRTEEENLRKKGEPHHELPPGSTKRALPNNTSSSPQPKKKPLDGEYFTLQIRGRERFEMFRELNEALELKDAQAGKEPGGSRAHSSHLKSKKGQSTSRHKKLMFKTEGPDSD

Compound `COC[C@H]1OC(=O)c2coc3c2[C@@]1(C)C1=C(C3=O)[C@@H]2CCC(=O)[C@@]2(C)C[C@H]1OC(C)=O` [wortmanin] displayed an apoptosis rate in assay [1] of 22.8%.

For “Jab1: Jun-activation binding protein 1, expressed in cells from plasmid pCMV-tag2B-Jab1 (Flag-tagged); amino acid sequence SEQ ID No. 2”, the “protein levels of WNV-Cp” value in the assay with WNV-Cp [2] (293T cells, co-expression with Jab1 compared to single expression of WNV-Cp) is recorded as “large decrease”. Besides, the “interaction with WNV-Cp (co-immunoprecipitation)” value in the assay with WNV-Cp [3] is “co-immunoprecipitated with WNV-Cp”. The “intracellular location of WNV-Cp” value in the assay with WNV-Cp [4] was “appeared in the cytoplasm”. Besides, in the assay on caspase-3 and caspase-9, the “caspase activity (caspase-3 and caspase-9)” value is “remarkably reduced”. In the assay with p53, the “expression of p53” value was “remarkably decreased”.

Take `CCCC[C@@H](C=O)NC(=O)[C@H](CC(C)C)NC(=O)[C@H](CC(C)C)NC(C)=O` [LLnL, N-acetyl-L-luecinyl-norleucinal, reference compound] (Ac-Leu-Leu-[Nle]-aldehyde): the “protein levels of WNV-Cp” value with WNV-Cp [2] (293T cells cotransfected with WNV-Cp and Jab1, treated for 4 hrs with 20 μM/ml LLnL) was “increased”.
